In patent US20080206761A1, “Ex Vivo Gene Expression in Whole Blood as a Model of Assessment of Individual Variation to Dietary Supplements” (priority 2005, published 2008):

Tests used:
IL-2 mRNA [1] = assay: PHA-induced IL-2 mRNA expression in heparinized whole blood ex vivo; assay type: cell-based, human
IL-4 mRNA [2] = assay: PHA-induced IL-4 mRNA expression in heparinized whole blood ex vivo; assay type: cell-based, human
TNF-α mRNA [3] = assay: PHA-induced TNF-α mRNA expression in heparinized whole blood ex vivo; assay type: cell-based, human
[4] = tested on: CD32A mRNA (IgG Fc receptor); assay: CD32A mRNA level in leukocytes after exposure of whole blood to dietary components (no stimulating agent); assay type: cell-based, human; conditions: one individual; 3 hours at 37° C.; PBS control
Protocol: In brief, home-made 96-well filterplates were placed over collection plates, and 150 μl 5 mM Tris, pH 7.4, was applied. Following centrifugation at 120×g for 1 min at 4° C., 50 μl of blood samples were applied to each well and immediately centrifuged at 120×g for 2 min at 4° C., followed by washing of each well with 300 μl PBS once with centrifugation at 2000×g for 5 min at 4° C. […] The filterplates were then placed over oligo(dT)-immobilized microplates (GenePlate, RNAture), and centrifuged at 2000×g for 5 min at 4° C. Following overnight storage at 4° C., the microplates were washed with 100 μl plain lysis buffer 3 times, followed by 150 μl of wash buffer (0.5 M NaCl, 10 mM Tris, pH 7.4, 1 mM EDTA) 3 times at 4° C. […] The specific primer-primed cDNA existed in solution, and oligo(dT)-primed cDNA stayed immobilized in the microplate. […] Each gene was amplified in separate wells. The Ct was determined by analytical software (SDS, ABI).

IL-2 mRNA [5] = assay: PHA-induced IL-2 mRNA expression in heparinized whole blood ex vivo; assay type: cell-based, human; conditions: for ΔΔCt (mean ± standard deviation, n = 3), IL-2 mRNA: supplement 30 min, concentrations per footnote; for effect on PHA-induced IL-2 expression, in words: summary over 7 subjects of Table I
Protocol: (§1) In this embodiment, phytohemagglutinin-induced gene expression of interleukin-2 (IL-2), interleukin-4 (IL-4), and tumor necrosis factor-α (TNF-α) were quantitated in the following manner. Fifty μL of heparinized whole blood was incubated with various dietary supplements for a period of 30 minutes. The following supplements were employed: vitamins A, C, and D, epigallocatechin gallate (from green tea), genistein (from soy), and curcumin (from the spice turmeric). Vitamin A is known to stimulate the immune system. […] Vitamin D appears to have protective effects against certain cancers. Epigallocatechin gallate is a powerful antioxidant, appears to reduce the multidrug resistance found in cancer cells, and preferentially induces apoptosis in neoplastic cells. Genistein has been found in some studies to have anticarcinogenic activity; possible mechanisms of action include upregulation of apoptosis, inhibition of angiogenesis, inhibition of DNA topoisomerase II and inhibition of protein tyrosine kinases. Curcumin has proapoptotic effects in neoplastic cells and interferes with the activity of the transcription factor NF-κB, which is often highly overexpressed in such cells.
(§2) After incubation with the dietary supplement, 100 μg/mL phytohemagglutinin (PHA) was added and incubation was continued for an additional 2 hours at 37° C. The concentration of each dietary supplement (see Table I, note) was slightly higher than reported blood levels. Then mRNA was purified, cDNA was synthesized, and the levels of IL-2, IL-4, and TNF-α were quantitated by TaqMan real time polymerase chain reaction (PCR) (see Holland, et al., “Detection of specific polymerase chain reaction product by utilizing the 5′ to 3′ exonuclease activity of Thermus aquaticus DNA polymerase,” Proc Natl Acad Sci USA 1991; 88: 7276-80), as described below.
(§3) The mRNA and cDNA were prepared from the whole blood that was exposed to the dietary components, as well as the whole blood which remained unexposed. In brief, home-made 96-well filterplates were placed over collection plates, and 150 μl 5 mM Tris, pH 7.4, was applied. Following centrifugation at 120×g for 1 min at 4° C., 50 μl of blood samples were applied to each well and immediately centrifuged at 120×g for 2 min at 4° C., followed by washing of each well with 300 μl PBS once with centrifugation at 2000×g for 5 min at 4° C. Then, 60 μl stock lysis buffer, containing for example 0.5% N-Lauroylsarcosine, 4×SSC, 10 mM Tris HCl, pH 7.4, 1 mM EDTA, 0.1% IGEPAL CA-630, and 1.791 M guanidine thiocyanate, supplemented with 1% 2-mercaptoethanol (Bio Rad, Hercules, Calif., USA), 0.5 mg/ml proteinase K (Pierce, Rockford, Ill., USA), 0.1 mg/ml salmon sperm DNA (5 Prime Eppendorf/Brinkmann, Westbury, N.Y., USA), 0.1 mg/ml E. coli tRNA (Sigma), a cocktail of 10 mM each of the specific reverse primers shown in Table 2, and standard RNA34 oligonucleotides, were applied to the filterplates, followed by incubation at 37° C. for 10 min. The filterplates were then placed over oligo(dT)-immobilized microplates (GenePlate, RNAture), and centrifuged at 2000×g for 5 min at 4° C. Following overnight storage at 4° C., the microplates were washed with 100 μl plain lysis buffer 3 times, followed by 150 μl of wash buffer (0.5 M NaCl, 10 mM Tris, pH 7.4, 1 mM EDTA) 3 times at 4° C. The cDNA was directly synthesized in each well by adding 30 μl of buffer containing 1×RT-buffer, 1.25 mM each of dNTP, 4 units rRNasin, and 80 units of MMLV reverse transcriptase (Promega) (without primers), and incubation at 37° C. for 2 hours. The specific primer-primed cDNA existed in solution, and oligo(dT)-primed cDNA stayed immobilized in the microplate. […]

TNF-α mRNA [6] = assay: PHA-induced TNF-α mRNA expression in heparinized whole blood ex vivo; assay type: cell-based, human; conditions: for ΔΔCt (mean ± standard deviation, n = 3), TNFα mRNA: supplement 30 min, then 100 μg/mL PHA 2 h, concentrations per footnote; for effect on PHA-induced TNF-α expression, in words: summary over 7 subjects of Table I
Protocol: as §1, §2, §3

IL-4 mRNA [7] = assay: PHA-induced IL-4 mRNA expression in heparinized whole blood ex vivo; assay type: cell-based, human; conditions: for ΔΔCt (mean ± standard deviation, n = 3), IL-4 mRNA: supplement 30 min, then 100 μg/mL PHA 2 h, concentrations per footnote; for effect on PHA-induced IL-4 expression, in words: summary over 7 subjects of Table I
Protocol: as §1, §2, §3

[8] = at 8 hours after a single soy meal; cited from earlier work
[9] = PHA alone, 2 hours at 37° C., FIG. 1A
[10] = Subject 1, then 100 μg/mL PHA 2 h 37° C., negative = increased expression
[11] = Subject 2, then 100 μg/mL PHA 2 h
[12] = Subject 3, then 100 μg/mL PHA 2 h
[13] = Subject 4, then 100 μg/mL PHA 2 h
[14] = Subject 5, then 100 μg/mL PHA 2 h
[15] = Subject 6, then 100 μg/mL PHA 2 h
[16] = Subject 7, then 100 μg/mL PHA 2 h

Compound	conclusion from CD32A mRNA levels (FIG. 2), in words [4]	ΔΔCt (mean ± standard deviation, n = 3), IL-2 mRNA (IL-2 mRNA [5]; [10])	ΔΔCt (mean ± standard deviation, n = 3), IL-2 mRNA (IL-2 mRNA [5]; [11])	ΔΔCt (mean ± standard deviation, n = 3), IL-2 mRNA (IL-2 mRNA [5]; [12])	ΔΔCt (mean ± standard deviation, n = 3), IL-2 mRNA (IL-2 mRNA [5]; [13])	ΔΔCt (mean ± standard deviation, n = 3), IL-2 mRNA (IL-2 mRNA [5]; [14])	ΔΔCt (mean ± standard deviation, n = 3), IL-2 mRNA (IL-2 mRNA [5]; [15])	ΔΔCt (mean ± standard deviation, n = 3), IL-2 mRNA (IL-2 mRNA [5]; [16])	ΔΔCt (mean ± standard deviation, n = 3), TNFα mRNA (TNF-α mRNA [6]; Subject 1)	ΔΔCt (mean ± standard deviation, n = 3), TNFα mRNA (TNF-α mRNA [6]; Subject 2)	ΔΔCt (mean ± standard deviation, n = 3), TNFα mRNA (TNF-α mRNA [6]; Subject 3)	ΔΔCt (mean ± standard deviation, n = 3), TNFα mRNA (TNF-α mRNA [6]; Subject 4)	ΔΔCt (mean ± standard deviation, n = 3), TNFα mRNA (TNF-α mRNA [6]; Subject 5)	ΔΔCt (mean ± standard deviation, n = 3), TNFα mRNA (TNF-α mRNA [6]; Subject 6)	ΔΔCt (mean ± standard deviation, n = 3), TNFα mRNA (TNF-α mRNA [6]; Subject 7)	ΔΔCt (mean ± standard deviation, n = 3), IL-4 mRNA (IL-4 mRNA [7]; Subject 1)	ΔΔCt (mean ± standard deviation, n = 3), IL-4 mRNA (IL-4 mRNA [7]; Subject 2)	ΔΔCt (mean ± standard deviation, n = 3), IL-4 mRNA (IL-4 mRNA [7]; Subject 3)	ΔΔCt (mean ± standard deviation, n = 3), IL-4 mRNA (IL-4 mRNA [7]; Subject 4)	ΔΔCt (mean ± standard deviation, n = 3), IL-4 mRNA (IL-4 mRNA [7]; Subject 5)	also measured
phytohemagglutinin [PHA]																					time for IL-2 mRNA induction to reach a plateau (IL-2 mRNA [1]; 100 μg/mL PHA, FIG. 1B): 30 to 60 min; EC50 of induction of IL-2 mRNA expression (IL-2 mRNA [1]; [9]): 10 to 20 µg/mL; time for IL-4 mRNA induction to reach a plateau (IL-4 mRNA [2]; 100 μg/mL PHA, FIG. 1B): 30 to 60 min; EC50 of induction of IL-4 mRNA expression (IL-4 mRNA [2]; [9]): 10 to 20 µg/mL; time for TNF-α mRNA induction to reach a plateau (TNF-α mRNA [3]; 100 μg/mL PHA, FIG. 1B): 30 to 60 min; EC50 of induction of TNF-α mRNA expression (TNF-α mRNA [3]; [9]): 10 to 20 µg/mL
vitamin D [VD]	would be suitable for use in this individual in a diet optimized for anti-cancer activity	−0.13 ± 0.07	0.06 ± 0.40	0.00 ± 0.15	−0.31 ± 0.30	−0.45 ± 0.61	−0.55 ± 0.14	−0.86 ± 0.12	−0.25 ± 1.47	0.14 ± 0.40	−0.04 ± 0.27	0.09 ± 0.16	−1.21 ± 0.14	−0.48 ± 0.04	−0.40 ± 0.15	−0.17 ± 1.0	0.06 ± 0.15	−0.77 ± 0.40	−0.43 ± 0.17	−1.22 ± 0.17	ΔΔCt (mean ± standard deviation, n = 3), IL-4 mRNA (IL-4 mRNA [7]; Subject 6): −0.77 ± 0.09; ΔΔCt (mean ± standard deviation, n = 3), IL-4 mRNA (IL-4 mRNA [7]; Subject 7): −1.30 ± 0.22; effect on PHA-induced IL-4 expression, in words (IL-4 mRNA [7]): enhanced IL-4 expression, with 1-3 exceptions
O=c1c(-c2ccc(O)cc2)coc2cc(O)cc(O)c12 [Gen., genistein]	would be suitable for use in this individual in a diet optimized for anti-cancer activity	−0.41 ± 0.53	0.90 ± 0.44	0.11 ± 0.23	0.08 ± 0.04	−0.02 ± 1.03	0.00 ± 0.27	−0.28 ± 0.20	−1.14 ± 0.32	−1.01 ± 0.04	0.33 ± 0.62	−0.16 ± 0.12	−0.32 ± 0.54	−0.02 ± 0.20	−0.17 ± 0.18	−1.83 ± 0.20	−1.56 ± 0.46	−0.82 ± 0.34	−1.04 ± 0.16	−0.45 ± 0.34	plasma concentration [8]: 4000 µM; effect on PHA-induced IL-2 expression, in words (IL-2 mRNA [5]): mainly inactive; effect on PHA-induced TNF-α expression, in words (TNF-α mRNA [6]): mainly inactive; ΔΔCt (mean ± standard deviation, n = 3), IL-4 mRNA (IL-4 mRNA [7]; Subject 6): −0.34 ± 0.02; ΔΔCt (mean ± standard deviation, n = 3), IL-4 mRNA (IL-4 mRNA [7]; Subject 7): 0.28 ± 0.25; effect on PHA-induced IL-4 expression, in words (IL-4 mRNA [7]): mainly inactive
O=C(O[C@@H]1Cc2c(O)cc(O)cc2O[C@@H]1c1cc(O)c(O)c(O)c1)c1cc(O)c(O)c(O)c1 [EGCG, epigallocatechin gallate]	would be suitable for use in this individual in a diet optimized for anti-cancer activity	−0.1 ± 0.02	−0.67 ± 0.48	1.32 ± 0.54	0.81 ± 0.11	−0.99 ± 0.33	1.1 ± 0.14	−0.41 ± 0.29	−1.14 ± 0.32	−0.63 ± 0.66	0.33 ± 0.62	−0.16 ± 0.12	−1.22 ± 0.29	−0.66 ± 0.14	−0.94 ± 0.46	−1.83 ± 0.20	−1.56 ± 0.46	−0.82 ± 0.34	0.92 ± 0.25	−1.37 ± 0.3	effect on PHA-induced IL-2 expression, in words (IL-2 mRNA [5]): 3 out of 7 persons showed decreases, 1 showed an increase, and 3 were unchanged; effect on PHA-induced TNF-α expression, in words (TNF-α mRNA [6]): showed individual variations; ΔΔCt (mean ± standard deviation, n = 3), IL-4 mRNA (IL-4 mRNA [7]; Subject 6): −0.9 ± 0.01; ΔΔCt (mean ± standard deviation, n = 3), IL-4 mRNA (IL-4 mRNA [7]; Subject 7): −1.47 ± 0.41; effect on PHA-induced IL-4 expression, in words (IL-4 mRNA [7]): enhanced PHA-induced IL-4 expression in all 7 cases
